Results taken from patent US20250171448A1, “SOLID STATE FORMS OF GUSACITINIB” (TEVA PHARMACEUTICALS INTERNATIONAL GMBH, priority 2022, published 2025).
Blank lines part the entries; values can stand above or below the compound they belong to.

What was measured:
Assay type in all cases: physicochemical
[1] = Storage stability at different relative humidity (XRPD after 7 days); details: ambient temperature; for XRPD analysis results 60% (7 days): polymorphic conversion: 60% relative humidity
Description: Samples of Gusacitinib Forms: GS2, GS3, GS4 and Gusacitinib HCl salt Forms GHC11, GHC12, GHC18 were subjected to conditions of different relative humidity at ambient temperature. XRPD analysis was performed on the samples after 7 days.
A sample of Form GHC13 of Gusacitinib HCl salt was subjected to 60% relative humidity for 7 days.

[2] = Stability under tested stress conditions (grinding, pressure of 2 tons, humidity, temperature), summary statements; details: strong grinding; for stability under all tested stress conditions: high temperature up to 100° C.
[3] = Thermal stability (heating up to 100° C. for 30 minutes, XRPD)
Description: Samples of Gusacitinib Forms: GS2, GS3, GS4 and Gusacitinib HCl salt Forms GHC11, GHC12 and GHC18 were subjected to heating up to 100° C. for 30 minutes. XRPD analysis of the samples confirmed there to be no change in the starting material (Table 3): […]

[4] = Grinding experiments (strong grinding and solvent drop grinding, XRPD)
Description: Samples of Gusacitinib Forms: GS2, GS3, GS4 and Gusacitinib HCl salt Forms: GHC11, GHC12, GHC13, GHC18 were subjected to strong grinding, and to solvent drop grinding in isopropanol, ethanol and water. Grinding was carried out on the sample alone, or in the presence of the solvent. In these experiments, about 20 mg of the sample is placed in a mortar and ground with a pestle for 2 minutes. The solvent, when used, was added to the crystalline material before grinding, in a volume of 10 microlitres. XRPD analysis performed on the sample after the grinding experiment, confirmed no conversion of the starting material (Table 2): […]

- XRPD analysis results 60% (7 days): polymorphic conversion ([1]; listed as GS3): No
SMILES: N#CCC1CCN(c2nc(Nc3ccc(N4CCC(O)CC4)cc3)c3c(=O)[nH]ncc3n2)CC1 [Form GS3, 2-[1-[4-[4-(4-hydroxypiperidin-1-yl)anilino]-5-oxo-6H-pyrimido[4,5-d]pyridazin-2-yl]piperidin-4-yl]acetonitrile]

- XRPD analysis results 60% (7 days): polymorphic conversion [1]: no polymorphic conversion
- stability under tested stress conditions ([2]; high humidity up to 60% RH for 7 days): stable
SMILES: N#CCC1CCN(c2nc(Nc3ccc(N4CCC(O)CC4)cc3)c3c(=O)[nH]ncc3n2)CC1 [Form GHC13]

- XRPD analysis results 60% (7 days): polymorphic conversion ([1]; listed as GHCl8): No
SMILES: N#CCC1CCN(c2nc(Nc3ccc(N4CCC(O)CC4)cc3)c3c(=O)[nH]ncc3n2)CC1 [Form GHC18]

- XRPD analysis results 60% (7 days): polymorphic conversion ([1]; listed as GS4): No
- XRPD analysis results 80% (7 days): polymorphic conversion ([1]; 80% relative humidity): No
- XRPD analysis results 100% (7 days): polymorphic conversion ([1]; 100% relative humidity): No
- stability under all tested stress conditions ([2]; high humidity up to 80% RH for 7 days): stable
SMILES: N#CCC1CCN(c2nc(Nc3ccc(N4CCC(O)CC4)cc3)c3c(=O)[nH]ncc3n2)CC1 [Form GS4, 2-[1-[4-[4-(4-hydroxypiperidin-1-yl)anilino]-5-oxo-6H-pyrimido[4,5-d]pyridazin-2-yl]piperidin-4-yl]acetonitrile]

- XRPD analysis results 60% (7 days): polymorphic conversion ([1]; listed as GHCl1): No
- stability under all tested stress conditions ([2]; high humidity up to 100% RH for 7 days): stable
SMILES: N#CCC1CCN(c2nc(Nc3ccc(N4CCC(O)CC4)cc3)c3c(=O)[nH]ncc3n2)CC1 [Form GHC11]

- XRPD analysis results 60% (7 days): polymorphic conversion ([1]; listed as GS2): No
- Result, Heating 100° C., 30 minutes [3]: Stable
- XRPD analysis results, Solvent-drop grinding (ethanol) ([4]; about 20 mg ground 2 minutes, 10 microlitres ethanol): No polymorphic
- XRPD analysis results, Solvent-drop grinding (isopropyl alcohol) ([4]; about 20 mg ground 2 minutes, 10 microlitres isopropyl alcohol): No polymorphic
- XRPD analysis results, Solvent-drop grinding (water) ([4]; about 20 mg ground 2 minutes, 10 microlitres water): No polymorphic
- XRPD analysis results, Strong grinding ([4]; about 20 mg ground with mortar and pestle for 2 minutes, no solvent): No polymorphic
SMILES: N#CCC1CCN(c2nc(Nc3ccc(N4CCC(O)CC4)cc3)c3c(=O)[nH]ncc3n2)CC1 [Form GS2, 2-[1-[4-[4-(4-hydroxypiperidin-1-yl)anilino]-5-oxo-6H-pyrimido[4,5-d]pyridazin-2-yl]piperidin-4-yl]acetonitrile]

- XRPD analysis results 60% (7 days): polymorphic conversion ([1]; listed as GHCl2): No
SMILES: N#CCC1CCN(c2nc(Nc3ccc(N4CCC(O)CC4)cc3)c3c(=O)[nH]ncc3n2)CC1 [Form GHC12]
